# Measured values as given in US10464901B2, “Composition including benzene diamine derivative for preventing or treating degenerative brain diseases” (UNIST(ULSAN NATIONAL INSTITUTE OF SCIENCE AND TECHNOLOGY), priority 2017, dated 2019).
# Key:
# [1] = Antioxidant effect: free organic radical-scavenging activity (ABTS) using cell lysate; format: biochemical; conditions: Table 1 summary of Example 3; symbols not defined
# Description: It was examined whether the benzene diamine derivatives of the present disclosure have an antioxidant effect. It is known that reactive oxygen species induces oxidative stress in neuronal cells to cause neuronal cell death and causes protein misfolding to induce formation of Aβ aggregates. Therefore, compounds having antioxidant effects may be candidates for preventing or treating dementia.
# Free organic radical-scavenging activity of the compound was determined according to a protocol of Cayman Chemical Company (Ann Arbor, Mich., USA) with slight modifications. For antioxidant analysis using a cell lysate, cells were seeded in a 6-well plate, and cultured until they reached 80-90% confluence. A cell lysate was prepared according to a known method, washed with a cold phosphate buffer solution (PBS; pH 7.4, GIBCO), and then harvested. Cell pellet was produced by centrifugation (2,000 g, 4° C., 10 min). This pellet was sonicated (5 sec pulse, 20 sec interval, three times) in 2 ml of cold assay buffer S13 (5 mM potassium phosphate, pH 7.4; 0.9% NaCl; 0.1% glucose) on ice. A cell lysate was centrifuged at 4° C. for 10 minutes at 5,000 g. A supernatant was removed, and left on ice until use. To the cell lysate supernatant (10 μl), the compound, metmyoglobin, ABTS (2,2′-azino-bis-3-ethylbenzothiazoline-6-sulfonic acid), and hydrogen peroxide were sequentially added. The mixture was incubated on a shaker at room temperature for 5 minutes, and absorbance at 750 nm was measured. The compound at a final concentration of 45, 90, 135, 180, 225, or 330 μM and Trolox (6-hydroxy-2,5,7,8-tetramethyl-chroman-2-carboxylic acid, dissolved in EtOH) were used. Antioxidant activity was calculated according to the measured absorbance [% inhibition=100×(A0−A)/A0, A0 represents absorbance of the supernant of the cell lysate]. Each measurement was repeated in triplicate.
# [2] = molecular target: T1, oligomeric Aβ42 (Homo sapiens, UniProt P05067); experiment: Brain tissue immunohistofluorescence, oligomeric Aβ; format: in vivo, mouse; conditions: oral 100 μg/kg twice a week for 2 months, confocal, FIG. 8
# T1 construct: from tissue; host or cells: brain of dementia mouse models
# Description: Oligomeric Aβ formation in the brain tissue may cause neuronal cell death by neuronal cytotoxicity, which may cause dementia. Therefore, anatomical analysis of the brain tissue was performed to examine whether the benzene diamine derivatives of the present disclosure inhibit neuronal cytotoxicity by oligomeric Aβ in dementia mouse models.
# In detail, as in Experimental Example 7-1, the dementia mouse models were prepared and their brain tissues were stained. Anti-oligomeric Aβ primary antibody (ab126892, Abcam, Eugene, USA) labeled with QD525 probe (red fluorescence) was used to examine changes in the quantity of oligomeric Aβ42. Further, to measure changes of plaques, the tissues were stained with a fluorescent staining reagent MX04 (blue) and incubated at 4° C. for 12 hours. Thereafter, the tissues were observed under a confocal microscope at 0.5×10.
# [3] = PAMPA-BBB analysis; format: in vitro ADME
# Description: […] PAMPA-BBB analysis was performed by using a PAMPA Explorer kit (pION, Inc. Billerica, Mass., USA) according to the manufacture's protocol with slight modifications. […] The prepared solution was put in each well of a donor plate (200 μl, repeated 12 times). A polyvinylidene fluoride (PVDF, […]) filter membrane on an acceptor plate was coated with BBB-1 lipid formulation (5 μl, pION). The acceptor plate was placed on top of the donor plate to generate a “sandwich”. Brain sink buffer (BSB, 200 μl, pION) was added to each well of the acceptor plate. The sandwich-shaped plate was incubated for 4 hours at room temperature without stirring. UV-vis spectra of the solutions in the reference, acceptor, and donor plates were measured using a microplate reader. A PAMPA Explorer software [v. 3.8 (pION)] was used to calculate the −log Pe values for compounds. CNS±designations were assigned by comparison with compounds that were identified in previous reports.
# T1 sequence (P05067 672-713 limits assumed): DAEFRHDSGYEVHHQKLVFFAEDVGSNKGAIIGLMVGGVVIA
smiles,measurement,setting,value
"Nc1ccc(NCc2ccccn2)cc1 [Compound 2, N^1-(pyridin-2-ylmethyl)benzene-1,4-diamine]",Reactive oxygen species (antioxidant effect),[1],◯ (better effect than TEAC)
same,oligomeric Aβ in brain,[2],oligomeric Aβ was hardly observed
same,PAMPA-BBB permeability class,"[3]; 50 μM, incubation 4 hrs, U.V",High
same,"Papp at 4 h, 50 μM","[3]; PAMPA, pH 7.4, 50 μM, incubation 4 hrs, U.V, read-out: Pe",12.5 ×10⁻⁶ cm/s
same,CNS± designation,[3]; assigned by comparison with compounds identified in previous reports,(CNS+)
